# Measurements reported in patent USRE38423E1, “Process for in vitro analysis of toxic and allergenic substances” (Biovator Technologies AB, priority 1995, dated 2004).
# How the values were obtained:
# [1] = tested on: human whole blood; type: cell-based; design: key to IL-1 / IFNγ / Neopterin / TNF / IL-6 / IL-8 / IL-2 / STL-2R / SCD8 / IL-10 / IL-4: index relative to medium control = 100; conditions: for IFNγ / IL-1 / IL-2 / IL-4 / IL-6 / IL-8 / IL-10 / Neopterin / SCD8 / STL-2R / TNF: blood from 5 normal humans, highest value at any time or concentration, related to medium control given the value 100
# Description: (§1) Five healthy blood donors from both sexes ranging in age between 25 and 55 years are used. Blood is collected by venous puncture into endotoxin free heparin tubes (Coatech, Ljungby, Sweden) that contains 120 IU heparin and are filled with 4 ml of blood. None of the blood donors are allowed to have a history of allergy or atopic excema or any indication of ongoing disease of any kind.
# (§2) 100 ul of blood is added to the wells of Nunclon microtiter plates.
# (§3) For substances to be tested for effects in the system different concentration are added to the blood. The highest concentration of the substance being non toxic to the cells indicated by inspection in microscopic in presence of vital stain e.g. trypan blue is used as start concentration.
# (§4) The microtiter plates are incubated at 37° C. at 90% humidity and with 5% CO2. An appropriate number of identical plates are prepared and are taken out of the incubator for testing at intervals of, 1 day, 2 days and 6 days.
# Another set of plates is prepared with the same design as in “Culture protocol” above. Cytokines released from the cultured cells are measured in the supernatants obtained after centrifugation of the plates at 650 g for 10 minutes. The supernatants were either tested immediately or stored at −20° C. until tested.
# The instructions of the manufacturers were followed. All these tests are enzyme immunoassays (EIA:s). The principle is that microtiter plate wells are labeled with a cytokine specific capture antibody. If cytokine is present in the samples added to the wells it will be captured to the bottom of the well. […] The reaction is thereafter measured as colour developed after addition of a substrate for the enzyme. The values for the test wells is compared with a standard curve obtained by adding a series of known amounts of cytokine. The values obtained for control wells with no substance added are used as background values for cytokine levels and proliferation as measured by ^3H-thymidin incorporation. Positive indications are recorded when values above 2 SD of the variation of the controls are obtained.
# (§5) The highest value as compared to medium control obtained at any time or concentration for each substance is used as indicator value in the table and related to medium control put to value 100 index.
# [2] = tested on: human whole blood; experiment: Proliferation assay, 3H-thymidine incorporation in diluted whole blood cultures; type: cell-based; conditions: for Prolif. Index (3H-Thymidine Proliferation): blood from 5 normal humans, highest value at any time or concentration, related to medium control given the value 100; for proliferative response (in words): summary of results, 3H-thymidine incorporation
# Description: as §1, §2, §3, §4
# One set of plates is used to estimate the proliferative activity of the donor cells spontaneously (=medium or substance dissolved controls); in response to PHA, and in response to samples of test substances at various concentrations. The highest concentration of sub-stance non toxic to the cells indicated by inspection in microscope in presence of vital stain (e.g. trypan blue) is used as start concentration. Ser. dilutions of the sub-stance is then performed as stated above.
# The plates were incubated for additional 4 hours at 37° C. The cells were then collected using a Skatron cell harvester (Skatron, Lier, Norway) and Titertek paper filters. The result of his procedure is that the DNA of the cells is stuck in the filter paper, whereas the ^3H-thymidin not incorporated in the DNA passes through the filter and goes with the waste washing water. The radioactivity in the filter papers is thus proportional to the DNA synthesis that occured during the 4 hours preceding the harvesting procedure. The radiactivity of the filter papers is determined in a Packard liquid scintillation counter, and thymidine incorporation was expressed as counts per minute (cpm).
# as §5
# [3] = summary of results, secreted into supernatants
Compound,IFNγ [1],IL-1 [1],IL-2 [1],IL-4 [1],IL-6 [1],IL-8 [1],IL-10 [1],Neopterin [1],SCD8 [1],STL-2R [1],TNF [1],"Neopterin induction (in words) [1, 3]","immune lymphocyte class / specific immune response cytokines induced (in words) [1, 3]","unspecific inflammatory / tissue toxic group cytokines induced (in words) [1, 3]",Prolif. Index (3H-Thymidine Proliferation) [2],proliferative response (in words) [2],predicted adverse reaction from cytokine pattern (in words) ([1]; interpretation of the cytokine profile)
"[Cl][Ni][Cl] [IV, Nickel chloride]",1220,1165,445,80,660,380,800,90,110,130,225,no Neopterin,"IFN-gamma, IL-2 and IL-10","IL-1, IL-6, TNF and IL-8",1340,low proliferative response,–
phytohemagglutinin [Plus],800,690,750,820,1620,780,1250,440,940,1820,420,–,"neopterin, IFN-gamma IL-2 and IL-4 and IL-10","IL-1, IL-6, TNF and IL-8",2600,strong proliferative response,–
Triton X-100,120,630,85,85,460,200,95,110,95,115,400,–,–,"IL-1, IL-6 and TNF",200,induced proliferation,positive tissue irritant
